target: Acetylcholinesterase (Homo sapiens) (UniProt P22303)
Sequence (P22303 whole entry): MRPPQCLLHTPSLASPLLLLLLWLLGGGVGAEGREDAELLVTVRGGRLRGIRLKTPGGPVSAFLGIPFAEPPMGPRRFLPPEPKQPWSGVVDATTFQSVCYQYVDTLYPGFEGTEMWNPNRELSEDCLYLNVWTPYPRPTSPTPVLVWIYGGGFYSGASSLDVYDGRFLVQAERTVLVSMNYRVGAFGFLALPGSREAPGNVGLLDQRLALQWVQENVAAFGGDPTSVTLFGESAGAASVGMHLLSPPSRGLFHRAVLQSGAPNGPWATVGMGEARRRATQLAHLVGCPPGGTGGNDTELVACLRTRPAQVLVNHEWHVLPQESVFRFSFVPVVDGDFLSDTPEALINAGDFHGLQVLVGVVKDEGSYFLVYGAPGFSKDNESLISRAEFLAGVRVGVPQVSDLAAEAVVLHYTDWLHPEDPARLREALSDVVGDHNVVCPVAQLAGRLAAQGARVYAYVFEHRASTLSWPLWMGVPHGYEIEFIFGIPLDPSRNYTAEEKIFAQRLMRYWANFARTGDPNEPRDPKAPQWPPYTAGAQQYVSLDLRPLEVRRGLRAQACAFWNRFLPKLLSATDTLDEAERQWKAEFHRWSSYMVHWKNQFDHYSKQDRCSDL
Description: Inhibition of AchE relative to tacrine

Row | Structure (SMILES) | logRA
1 | Nc1c2c(nc3cc(Cl)ccc13)-c1ccccc1C2 | -1.42
2 | CC1=CC2Cc3nc4cc(Cl)ccc4c(NCCCN(C)CCCNc4c5c(nc6cc(Cl)ccc46)CCCC5)c3C(C1)C2 (stereo unspecified) | 2.85
3 | CCOC(=O)C1=C(C)Oc2nc3c(c(N)c2C1c1ccc(C)cc1)CCCC3 (stereo unspecified) | -1.15
4 | CC1=CC2Cc3nc4cc(Cl)ccc4c(NCCCCCCCNc4c5c(nc6ccccc46)CCCC5)c3C(C1)C2 (stereo unspecified) | 2.78
5 | CC1=CC2Cc3nc4cc(Cl)ccc4c(NCCCCCCCCNc4c5c(nc6cc(Cl)ccc46)CCCC5)c3C(C1)C2 (stereo unspecified) | 2.71
6 | CCOC(=O)c1c(C)nc2nc3c(c(N)c2c1-c1cccc([N+](=O)[O-])c1)CCCC3 | -0.713
7 | Cc1nc2nc3c(c(N)c2c(-c2ccccc2)c1C(=O)OC(C)C)CCCC3 | -0.824
8 | CCOC(=O)c1c(C)nc2nc3c(c(N)c2c1-c1ccncc1)CCC3 | -1.77
9 | CCOC(=O)C1=C(C)Oc2nc3c(c(N)c2C1c1ccc(OC)c(OC)c1)CCCCC3 (stereo unspecified) | -2.26
10 | CCOC(=O)C1=C(C)Oc2nc3c(c(N)c2C1c1ccc(OC)cc1)CCCC3 (stereo unspecified) | -0.825
11 | CCOC(=O)C1=C(C)Oc2nc3c(c(N)c2C1c1ccccc1)CCC3 (stereo unspecified) | -1.48
12 | CCOC(=O)c1c(C)nc2nc3c(c(N)c2c1-c1cccs1)CCCC3 | -2.25
13 | CCOC(=O)C1=C(C)Oc2nc3c(c(N)c2C1c1ccc(Cl)cc1)CCCC3 (stereo unspecified) | -1.17
14 | Fc1ccc2c(NCCCCCCCNc3c4c(nc5ccccc35)CCC4)c3c(nc2c1)CCC3 | 0.647
15 | CCOC(=O)C1=C(C)Oc2nc3c(c(N)c2C1c1cccc(OC)c1)CCCCC3 (stereo unspecified) | -1.86
16 | CCOC(=O)c1c(C)nc2nc3c(c(N)c2c1-c1cccn1C(C)=O)CCCC3 | -1.08
17 | CCOC(=O)c1c(C)nc2nc3c(c(N)c2c1-c1ccccc1)CCCC3 | -0.801
18 | CCOC(=O)c1c(C)nc2nc3c(c(N)c2c1-c1ccncc1)CCCCC3 | -1.56
19 | CCOC(=O)c1c(C)nc2nc3c(c(N)c2c1-c1cccs1)CCCCC3 | -2.01
20 | c1ccc2c(NCCCCCCNc3c4c(nc5ccccc35)CCCC4)c3c(nc2c1)CCCC3 | 2.38
21 | CC1=CC2Cc3nc4cc(Cl)ccc4c(NCCCN(C)CCCNc4c5c(nc6ccccc46)CCCC5)c3C(C1)C2 (stereo unspecified) | 2.81
22 | CC1=CC2Cc3nc4cc(Cl)ccc4c(NCCCCCCNc4c5c(nc6cc(Cl)ccc46)CCCC5)c3C(C1)C2 (stereo unspecified) | 2.66
23 | CCOC(=O)C1=C(C)Oc2nc3c(c(N)c2C1c1ccc(C#N)cc1)CCCC3 (stereo unspecified) | -1.43
24 | Nc1c2c(nc3ccccc13)CSCC2=O | -0.745

Row | Structure (SMILES) | logRA
25 | CCOC(=O)c1c(C)nc2nc3c(c(N)c2c1-c1ccc(OC)c(OC)c1)CCCCC3 | -1.55
26 | Nc1c2c(nc3ccccc13)C[S+]([O-])CC2O (stereo unspecified) | -0.745
27 | CCOC(=O)C1=C(C)Oc2nc3c(c(N)c2C1c1cccc([N+](=O)[O-])c1)CCCC3 (stereo unspecified) | -1.16
28 | c1ccc2c(NCCCCCCCCNc3c4c(nc5ccccc35)CCCC4)c3c(nc2c1)CCCC3 | 2.32
29 | CCOC(=O)C1=C(C)Oc2nc3c(c(N)c2C1c1ccccc1OC)CCCC3 (stereo unspecified) | -1.63
30 | CCOC(=O)c1c(C)nc2nc3c(c(N)c2c1-c1ccc(F)cc1)CCCCC3 | -1.48
31 | Nc1c2c(nc3ccccc13)-c1ccc(Cl)cc1C2 | -1.33
32 | c1ccc2c(NCCCCCCNc3c4c(nc5ccccc35)CCCCC4)c3c(nc2c1)CCCCC3 | 2.19
33 | CCOC(=O)c1c(C)nc2nc3c(c(N)c2c1-c1ccc(OC)cc1)CCCC3 | -1.84
34 | CC1=CC2Cc3nc4cc(Cl)ccc4c(NCCCCCCCCNc4c5c(nc6ccccc46)CCCC5)c3C(C1)C2 (stereo unspecified) | 2.79
35 | Cc1cccc2c1Cc1c-2nc2ccccc2c1N | -1.19
36 | COc1ccc2c(c1)Cc1c-2nc2ccccc2c1N | -1.42
37 | CCOC(=O)c1c(C)nc2nc3c(c(N)c2c1-c1cccs1)CCC3 | -2.3
38 | CCOC(=O)c1c(C)nc2nc3c(c(N)c2c1-c1ccc(OC)cc1)CCC3 | -2.02
39 | COc1cccc2c1Cc1c-2nc2ccccc2c1N | -0.806
40 | Cc1ccc2c(c1)-c1nc3ccccc3c(N)c1C2 | -1.26
41 | CNc1c2c(nc3ccccc13)-c1ccccc1C2 | -0.716
42 | Nc1c2c(nc3cc(F)ccc13)-c1ccccc1C2 | -0.681
43 | Fc1ccc2c(NCCCCCCCCNc3c4c(nc5cc(F)ccc35)CCCC4)c3c(nc2c1)CCCC3 | 2.68
44 | CCOC(=O)c1c(C)nc2nc3c(c(N)c2c1-c1cccc(OC)c1)CCCC3 | -0.824
45 | Nc1c2c(nc3ccccc13)CSCC2O (stereo unspecified) | -0.852
46 | CCOC(=O)C1=C(C)Oc2nc3c(c(N)c2C1c1cccnc1)CCCC3 (stereo unspecified) | -1.71
47 | CC1=CC2Cc3nc4cc(Cl)ccc4c(NCCCCCCNc4c5c(nc6ccccc46)CCCC5)c3C(C1)C2 (stereo unspecified) | 2.61
48 | CCOC(=O)c1c(C)nc2nc3c(c(N)c2c1-c1ccccc1)CCC3 | -1.96

Row | Structure (SMILES) | logRA
49 | CCOC(=O)c1c(C)nc2nc3c(c(N)c2c1-c1ccc(OC)cc1)CCCCC3 | -1.02
50 | CCOC(=O)c1c(C)nc2nc3c(c(N)c2c1-c1ccncc1)CCCC3 | -1
51 | c1ccc2c(NCCCCCCCNc3c4c(nc5ccccc35)CCCC4)c3c(nc2c1)CCCC3 | 2.41
52 | COc1ccc2c(c1)-c1nc3ccccc3c(N)c1C2 | -1.24
53 | CCOC(=O)C1=C(C)Oc2nc3c(c(N)c2C1c1ccc(OC)c(OC)c1)CCC3 (stereo unspecified) | -2.18
54 | CC1=CC2Cc3nc4ccccc4c(NCCCCCCCCNc4c5c(nc6ccccc46)CCCC5)c3C(C1)C2 (stereo unspecified) | 2.4
55 | CCOC(=O)c1c(C)nc2nc3c(c(N)c2c1-c1ccc(Cl)cc1)CCCC3 | -0.859
56 | CCOC(=O)C1=C(C)Oc2nc3c(c(N)c2C1c1ccccc1OC)CCCCC3 (stereo unspecified) | -2.07
57 | CCOC(=O)c1c(C)nc2nc3c(c(N)c2c1-c1ccccc1)CCCCC3 | -0.768
58 | CCOC(=O)C1=C(C)Oc2nc3c(c(N)c2C1c1ccncc1)CCCCC3 (stereo unspecified) | -1.79
59 | CCOC(=O)C1=C(C)Oc2nc3c(c(N)c2C1c1ccccc1OC)CCC3 (stereo unspecified) | -2.12
60 | Nc1ccc2nc3c(c(N)c2c1)Cc1ccccc1-3 | -1.37
61 | CCOC(=O)C1=C(C)Oc2nc3c(c(N)c2C1c1ccncc1)CCC3 (stereo unspecified) | -1.67
62 | CCOC(=O)c1c(C)nc2nc3c(c(N)c2c1-c1ccc(F)cc1)CCCC3 | -0.596
63 | CCOC(=O)C1=C(C)Oc2nc3c(c(N)c2C1c1ccc(OC)c(OC)c1)CCCC3 (stereo unspecified) | -1.41
64 | CC1=CC2Cc3nc4cc(Cl)ccc4c(NCCCCCCCNc4c5c(nc6cc(Cl)ccc46)CCCC5)c3C(C1)C2 (stereo unspecified) | 2.79
65 | O=C(CNc1c2c(nc3ccccc13)CCCC2)NCCC1CCN(c2ccccc2)CC1 | 1.57
66 | CCOC(=O)c1c(C)nc2nc3c(c(N)c2c1-c1ccc(OC)c(OC)c1)CCCC3 | -0.859
67 | CCOC(=O)C1=C(C)Oc2nc3c(c(N)c2C1c1ccccc1)CCCC3 (stereo unspecified) | -1.08
68 | Fc1ccc2c(NCCCCCCNc3c4c(nc5cc(F)ccc35)CCCC4)c3c(nc2c1)CCCC3 | 2.57
69 | CCOC(=O)C1=C(C)Oc2nc3c(c(N)c2C1c1ccncc1)CCCC3 (stereo unspecified) | -1.33
70 | Nc1c2c(nc3ccccc13)-c1ccccc1C2 | -0.435
71 | Clc1ccc2c(NCCCCCCNc3c4c(nc5cc(Cl)ccc35)CCCC4)c3c(nc2c1)CCCC3 | 2.74

Reference: ChEMBL document CHEMBL1140601, “Quantitative structure-activity relationship (QSAR) of tacrine derivatives against acetylcholinesterase (AChE) activity using variable selections” (Bioorg Med Chem Lett, 2007)
